Data as given in patent US11213508B2, “Compositions comprising urolithins and uses thereof for the stimulation of insulin secretion” (Centre National de la Recherche Scientifique (CNRS), priority 2013, dated 2022).
Where “and” joins values, the source holds several entries; their conditions need not be identical. Identical values can stand only once.

Columns and labels:
[1] = system: INS-1 insulin-secreting β-cells; assay: Glucose (8.3 mmol·L^−1)-stimulated insulin secretion in INS-1 cells (HTRF insulin assay); assay type: cell-based; conditions: 8.3 mmol·L^−1 glucose; for activity at 2 µM / activity at 20 µM: Rattus norvegicus, INS1, 1 h, read-out: % control response (glucose-stimulated insulin secretion); for activity at 2 µM / activity at 20 µM / % control response (glucose-stimulated insulin secretion): control = glucose alone
Experimental: Cells were seeded in 24-well plates (4×10^5 cells per well) and were used for experiments after 5 days of culture.
(§1) Cells were incubated for 1 h (5% CO2, 37° C.) in KRB medium containing 8.3 mmol·L^−1 glucose (glucose-stimulated secretion) in the presence or absence of the compounds tested. At the end of the 1 h incubation period, the medium was sampled and stored at −20° C. until the insulin assay. Insulin concentration in cell supernatants was determined using the homogeneous time resolved fluorescence technology (HTRF), according to the manufacturer's instructions (HTRF insulin assay kit, Cisbio International, Bagnols-sur-Ceze, France). Briefly, two anti-insulin antibodies were used; one labelled with Eu^3+-Cryptate and one labelled with XL665 recognizing distinct epitopes. When these two fluorophores bind to insulin molecules, the two antibodies come into close proximity, allowing fluorescence resonance energy transfer (FRET) to occur between the Eu^3+-Cryptate and the XL665. This FRET increases proportionally with the insulin concentrations. All the experiments were performed at least in quadruplicate.
For the determination of insulin secretion, cells were incubated for 1 h (5% CO2, 37° C.) in KRB medium containing either 1.4 mmol·L^−1 glucose (low-glucose) or 8.3 mmol·L^−1 glucose (glucose-stimulated secretion) in the presence or absence of the compounds tested. At the end of the 1 h incubation period, mediums were sampled and stored at −20° C. until the insulin assay.

[2] = system: INS-1 insulin-secreting β-cells; conditions: Youl et al., 2010; cited from earlier work
[3] = system: INS-1 insulin-secreting β-cells; assay: Glibenclamide-stimulated insulin secretion in INS-1 cells; assay type: cell-based; conditions: glibenclamide 0.01 μmol·L^−1
Experimental: The insulin-secreting cell line INS-1 (a gift from Professor C. B. Wollheim) was cultured in RPMI-1640, supplemented with 10% fetal calf serum (FCS), 100 U·mL^−1 penicillin, 100 μg·mL^−1 streptomycin, 2 mmol·L^−1 L-glutamine, 10 mmol·L^−1 HEPES, 1 mmol·L^−1 sodium pyruvate, and […] 2-mercaptoethanol, as previously described by Youl et al. (2010). Cells were seeded in 24-well plates (4×10^5 cells per well) and were used for experiments after 5 days of culture.
as §1, with “Before the treatment, RPMI medium was removed and the cells were washed twice with HEPES-balanced Krebs-Ringer bicarbonate buffer (KRB) containing (in mmol·L^−1): 123 NaCl, 5.4 KCl, 1.3 KH2PO4, 2.7 MgSO4, 2.9 CaCl2, 5 NaHCO3 and 20 HEPES, pH 7.5, with 2 g·L^−1 bovine serum albumin (KRB/BSA). Cells” for “Cells”
Material and methods were the same as described in example 1. For the determination of insulin secretion, cells were incubated for 1 h (5% CO2, 37° C.) in KRB medium containing 1.4 mmol·L^−1 glucose (low-glucose condition) and 0.01 μmol·L^−1 glibenclamide (glibenclamide-stimulated secretion), in the presence or absence of urolithins. At the end of the 1 h incubation period, the medium was sampled and stored at −20° C. until the insulin assay. Insulin concentration in cell supernatants was determined as described in Example 1.

Row | SMILES | activity at 2 µM ([1]; compound 2 μM) [%] | activity at 20 µM ([1]; compound 20 μM) [%] | also measured
1 | O=C(O)Cc1ccc(O)c(O)c1 [3,4-dihydroxyphenylacetic acid] | 105 | 84 | –
2 | O=C(O)CCc1cccc(O)c1 [3-(3′-hydroxyphenyl)propionic acid] | 98 | 103 | –
3 | O=C(O)C(O)Cc1ccc(O)cc1 (stereo not drawn) [3-(4′-hydroxyphenyl)lactic acid] | 97 | 79 | –
4 | COc1cc(C(=O)O)cc(O)c1O [3-O-Methylgallic acid] | 93 | 105 | –
5 | O=C(O)Cc1cccc(O)c1 [3-hydroxyphenylacetic acid] | 98 | 104 | –
6 | COc1c(O)cc(C(=O)O)cc1O [4-O-Methylgallic acid] | 104 | 86 | –
7 | O=C(O)c1ccc(O)cc1 [4-hydroxybenzoic acid] | 96 | 98 | –
8 | O=C(O)CNC(=O)c1ccc(O)cc1 [4′-hydroxyhippuric acid] | – | – | % control response (glucose-stimulated insulin secretion) ([1]; compound 2 μM): 98.00%; % control response (glucose-stimulated insulin secretion) ([1]; compound 20 μM): 111.00%
9 | O=C(O)Cc1ccc(O)cc1 [4′-hydroxyphenylacetic acid] | – | – | % control response (glucose-stimulated insulin secretion) ([1]; compound 2 μM): 102.00% and 107.00%; % control response (glucose-stimulated insulin secretion) ([1]; compound 20 μM): 74.00% and 81.00%
10 | O=C(O)C(O)c1ccc(O)cc1 (stereo not drawn) [4′hydroxymandelic acid] | – | – | % control response (glucose-stimulated insulin secretion) ([1]; compound 2 μM): 103.00%; % control response (glucose-stimulated insulin secretion) ([1]; compound 20 μM): 86.00%
11 | O=C(O)/C=C/c1ccc(O)c(O)c1 [Caffeic acid] | 104 | 105 | –
12 | O=C(O)CCc1ccc(O)c(O)c1 [Dihydrocaffeic acid] | 110 | 83 | –
13 | COc1cc(CCC(=O)O)ccc1O [Dihydroferulic acid] | 106 | 103 | –
14 | O=c1oc2c(O)c(O)cc3c(=O)oc4c(O)c(O)cc1c4c23 [Ellagic acid, reference compound] | 93.4 | 101 | ability to amplify glucose-stimulated insulin secretion ([1]; blind screening, 2 and 20 μM): not active
15 | COc1cc(/C=C/C(=O)O)ccc1O [Ferulic acid] | 109 | 115 | –
16 | COc1cc(/C=C/C(=O)NCC(=O)O)ccc1O [Feruloylglycine] | 102 | 102 | –
17 | COc1cc(CC(=O)O)ccc1O [Homovanillic acid] | 93 | 83 | –
18 | COc1ccc(/C=C/C(=O)NCC(=O)O)cc1O [Isoferuloylglycine] | 80 | 82 | –
19 | O=C(O)[C@H]1O[C@@H](Oc2c(-c3ccc(O)cc3)oc3cc(O)cc(O)c3c2=O)[C@H](O)[C@@H](O)[C@@H]1O [Kaempferol-3 -glucuronide] | – | – | % control response (glucose-stimulated insulin secretion) ([1]; compound 2 μM): 111.00%; % control response (glucose-stimulated insulin secretion) ([1]; compound 20 μM): 104.00%
20 | CC(=O)N[C@@H](CS)C(=O)O [N-acetyl cysteine] | – | – | prevention of H2O2-induced insulin secretion impairment [2]: not
21 | Oc1cc(O)cc(O)c1 [Phloroglucinol] | 100 | 105 | –
22 | O=C(O)c1ccc(O)c(O)c1 [Protocatechuic acid] | 108 | 92 | –
23 | Oc1ccccc1O [Pyrocatechol] | 87 | 96 | –
24 | Oc1cccc(O)c1O [Pyrogallol] | 93 | 98 | –
25 | O=c1c(O)c(-c2ccc(O)c(O)c2)oc2cc(O)cc(O)c12 [Quercetin, reference compound] | 93.8 | 237 | prevention of H2O2-induced insulin secretion impairment [2]: able to prevent H2O2-induced insulin secretion impairment
26 | O=C(O)[C@H]1O[C@@H](Oc2c(-c3ccc(O)c(O)c3)oc3cc(O)cc(O)c3c2=O)[C@H](O)[C@@H](O)[C@@H]1O [Quercetin-3 -glucuronide] | – | – | % control response (glucose-stimulated insulin secretion) ([1]; compound 2 μM): 89.00%; % control response (glucose-stimulated insulin secretion) ([1]; compound 20 μM): 103.00%
27 | OCCc1ccc(O)cc1 [Tyrosol] | 86 | 89 | –
28 | COc1ccc(Cl)cc1C(=O)NCCc1ccc(S(=O)(=O)NC(=O)NC2CCCCC2)cc1 [glibenclamide, reference compound] | – | – | increase of secretion as compared to low-glucose condition [3]: 4/6
29 | Oc1ccc(C=Cc2cc(O)cc(O)c2)cc1 [resveratrol] | – | – | prevention of H2O2-induced insulin secretion impairment [2]: not
